Measured values reported in ChEMBL document CHEMBL4402510, “Caprazamycins: Promising lead structures acting on a novel antibacterial target MraY” (Eur J Med Chem, 2019).
Values after ≈ are worked out from the molar mass of the structure shown.

What was measured:
[1] = test system: Mycolicibacterium smegmatis; assay: Antibacterial activity against Mycobacterium smegmatis; assay type: functional
[2] = test system: Mycolicibacterium fortuitum; assay: Antibacterial activity against Mycobacterium fortuitum; assay type: functional
[3] = test system: Mycobacterium tuberculosis; assay: Antibacterial activity against Mycobacterium tuberculosis; assay type: functional
[4] = test system: Mycobacterium avium; assay: Antibacterial activity against Mycobacterium avium; assay type: functional
[5] = test system: Mycobacterium intracellulare; assay: Antibacterial activity against Mycobacterium intracellulare; assay type: functional
[6] = test system: Staphylococcus aureus; assay: Antibacterial activity against Staphylococcus aureus; assay type: functional
[7] = test system: Bacillus subtilis; assay: Antibacterial activity against Bacillus subtilis; assay type: functional
[8] = test system: Escherichia coli; assay: Antibacterial activity against Escherichia coli; assay type: functional
[9] = target: T1, Phospho-N-acetylmuramoyl-pentapeptide-transferase (Bacillus subtilis (strain 168), UniProt Q03521); assay: Inhibition of MraY in Bacillus subtilis using UDP-MurNAc-[14C]pentapeptide as substrate by radioactivity scanning assay
T1 sequence (Q03521 whole entry): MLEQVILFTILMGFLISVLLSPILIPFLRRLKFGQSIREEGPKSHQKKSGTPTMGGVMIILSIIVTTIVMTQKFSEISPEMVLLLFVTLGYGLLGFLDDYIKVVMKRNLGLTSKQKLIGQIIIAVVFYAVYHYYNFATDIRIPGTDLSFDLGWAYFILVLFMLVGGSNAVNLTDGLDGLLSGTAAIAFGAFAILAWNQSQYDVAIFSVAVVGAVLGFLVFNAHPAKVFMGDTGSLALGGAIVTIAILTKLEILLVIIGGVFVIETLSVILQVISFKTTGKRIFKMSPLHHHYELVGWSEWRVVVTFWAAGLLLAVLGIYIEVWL

[10] = test system: Staphylococcus aureus; assay: Antibacterial activity against methicillin resistant Staphylococcus aureus; assay type: functional, organism-based
[11] = target: T1, Phospho-N-acetylmuramoyl-pentapeptide-transferase; assay: Inhibition of MraY in Bacillus subtilis
[12] = test system: Escherichia coli; assay: Antibacterial activity against Escherichia coli ATCC 8730; assay type: functional
[13] = test system: Citrobacter freundii; assay: Antibacterial activity against Citrobacter freundii ATCC 8090; assay type: functional
[14] = test system: Pseudomonas aeruginosa; assay: Antibacterial activity against Pseudomonas aeruginosa ATCC 27853; assay type: functional
[15] = test system: Staphylococcus aureus; assay: Antibacterial activity against Staphylococcus aureus ATCC 25923; assay type: functional
[16] = test system: Staphylococcus aureus; assay: Antibacterial activity against methicillin resistant Staphylococcus aureus ATCC 43300; assay type: functional
[17] = test system: Enterococcus faecium; assay: Antibacterial activity against Enterococcus faecium ATCC 19434; assay type: functional
[18] = test system: Enterococcus faecalis; assay: Antibacterial activity against t Enterococcus faecalis VRE after 20 hrs by NCCLS-based two-fold broth dilution method; assay type: functional; details: read-out: MIC
[19] = test system: Mycolicibacterium smegmatis; assay: Antibacterial activity against Mycobacterium smegmatis after 20 hrs by NCCLS-based two-fold broth dilution method; assay type: functional
[20] = test system: Staphylococcus aureus; assay: Antibacterial activity against Staphylococcus aureus after 20 hrs by NCCLS-based two-fold broth dilution method; assay type: functional
[21] = test system: Staphylococcus aureus; assay: Antibacterial activity against multi drug resistance Staphylococcus aureus after 20 hrs by NCCLS-based two-fold broth dilution method; assay type: functional
[22] = test system: Staphylococcus aureus; assay: Antibacterial activity against methicillin resistant Staphylococcus aureus after 20 hrs by NCCLS-based two-fold broth dilution method; assay type: functional; details: read-out: MIC
[23] = test system: Mycolicibacterium vaccae; assay: Antibacterial activity against Mycobacterium vaccae; assay type: functional
[24] = target: T2, Phospho-N-acetylmuramoyl-pentapeptide-transferase (Aquifex aeolicus (strain VF5), UniProt O66465); assay: Inhibition of MraY in Aquifex aeolicus
T2 sequence (O66465 whole entry): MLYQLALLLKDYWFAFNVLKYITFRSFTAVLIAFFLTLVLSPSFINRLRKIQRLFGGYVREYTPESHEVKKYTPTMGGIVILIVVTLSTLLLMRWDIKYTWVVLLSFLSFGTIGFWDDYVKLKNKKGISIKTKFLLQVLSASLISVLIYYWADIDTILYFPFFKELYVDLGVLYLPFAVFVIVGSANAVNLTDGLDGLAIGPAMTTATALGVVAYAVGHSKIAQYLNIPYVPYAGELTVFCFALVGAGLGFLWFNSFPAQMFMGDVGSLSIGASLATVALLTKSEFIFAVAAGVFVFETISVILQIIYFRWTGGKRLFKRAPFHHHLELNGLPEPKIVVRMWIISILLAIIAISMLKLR

[25] = target: Phospho-N-acetylmuramoyl-pentapeptide-transferase (Escherichia coli, UniProt E2QF15); assay: Inhibition of MraY in Escherichia coli
Chain of Phospho-N-acetylmuramoyl-pentapeptide-transferase (Escherichia coli, UniProt E2QF15) (E2QF15 whole entry): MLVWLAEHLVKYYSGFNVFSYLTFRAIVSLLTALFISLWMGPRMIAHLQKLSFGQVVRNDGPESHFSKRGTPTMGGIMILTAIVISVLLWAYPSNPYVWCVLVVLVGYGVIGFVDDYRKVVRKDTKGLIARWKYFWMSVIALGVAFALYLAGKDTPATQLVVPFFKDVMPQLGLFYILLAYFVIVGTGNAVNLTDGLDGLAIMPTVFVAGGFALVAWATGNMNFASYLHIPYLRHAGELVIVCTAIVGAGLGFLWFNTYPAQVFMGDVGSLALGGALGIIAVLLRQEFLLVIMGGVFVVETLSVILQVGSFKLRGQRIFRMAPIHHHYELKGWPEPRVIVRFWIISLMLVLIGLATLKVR

CO[C@@H]1[C@@H](OC)[C@H](C)O[C@@H](OC(=O)C[C@@H](C)CC(=O)O[C@@H](CCCCCCCCCCC(C)C)CC(=O)O[C@H]2CN(C)[C@@H]([C@H](O[C@@H]3O[C@H](CN)[C@@H](O)[C@H]3O)[C@H]3O[C@@H](n4ccc(=O)[nH]c4=O)[C@H](O)[C@@H]3O)C(=O)N(C)[C@@H]2C(=O)O)[C@@H]1OC
MIC [1]: 1.56 to 3.13 µg/mL (≈ 1.36 to 2.73 µM) | MIC [2]: 50 µg/mL (≈ 43.6 µM) | MIC [3]: 3.13 to 12.5 µg/mL (≈ 2.73 to 10.9 µM) | MIC [4]: 6.25 to 50 µg/mL (≈ 5.45 to 43.6 µM) | MIC [5]: 1.56 to 25 µg/mL (≈ 1.36 to 21.8 µM) | MIC [6]: 1.56 to 6.25 µg/mL (≈ 1.36 to 5.45 µM) | MIC [7]: 6.25 to 12.5 µg/mL (≈ 5.45 to 10.9 µM) | MIC [8]: 100 µg/mL (≈ 87.2 µM)

NC[C@H]1O[C@@H](O[C@@H](c2cn(CCCCCCCCCCOc3ccc(C(=O)c4ccccc4)cc3)nn2)[C@H]2O[C@@H](n3ccc(=O)[nH]c3=O)[C@H](O)[C@@H]2O)[C@H](O)[C@@H]1O
IC50 [9]: 100 µM | IC50 [10]: 100 µM | IC50 [11]: 125 µM | MIC [12]: > 128 µg/mL | MIC [13]: > 128 µg/mL | MIC [14]: > 128 µg/mL | MIC [15]: 8 µg/mL (≈ 10.3 µM) | MIC [16]: 8 µg/mL (≈ 10.3 µM) | MIC [17]: > 128 µg/mL

CCCCCCCCCCCCCCCC(=O)O[C@H]1CN[C@@H]([C@H](O[C@@H]2O[C@H](CN)[C@@H](O)[C@H]2O)[C@H]2O[C@@H](n3ccc(=O)[nH]c3=O)[C@H](O)[C@@H]2O)C(=O)N(C)[C@@H]1C(=O)O [DESMETHYLPALMITOYLCAPRAZOL]
MIC [18]: 12.5 µg/mL (≈ 15.6 µM) | MIC [19]: 25 µg/mL (≈ 31.3 µM) | MIC [20]: 1.56 µg/mL (≈ 1.95 µM) | MIC [21]: 3.13 µg/mL (≈ 3.91 µM) | MIC [22]: 6.25 to 12.5 µg/mL (≈ 7.81 to 15.6 µM)

NC[C@H]1O[C@@H](O[C@@H](c2cn(Cc3ccc(COc4ccc(C(=O)c5ccccc5)cc4)cc3)nn2)[C@H]2O[C@@H](n3ccc(=O)[nH]c3=O)[C@H](O)[C@@H]2O)[C@H](O)[C@@H]1O
IC50 [9]: 50 µM

CCCCCCCCCCCCC[C@@H](CC(=O)O[C@H]1CN(C)[C@@H]([C@H](O[C@@H]2O[C@H](CN)[C@@H](O)[C@H]2O)[C@H]2O[C@@H](n3ccc(=O)[nH]c3=O)[C@H](O)[C@@H]2O)C(=O)N(C)[C@@H]1C(=O)O)OC(=O)C[C@H](C)CC(=O)O[C@@H]1O[C@@H](C)[C@H](OC)[C@@H](OC)[C@H]1OC
MIC [1]: 0.78 to 1.56 µg/mL (≈ 0.68 to 1.36 µM) | MIC [23]: 0.2 µg/mL (≈ 0.174 µM) | MIC [3]: 1.56 µg/mL (≈ 1.36 µM) | MIC [4]: < 0.025 µg/mL | MIC [5]: 0.78 µg/mL (≈ 0.68 µM)

CCCCCCCCCCCCCCCC(=O)O[C@H]1CN(C)[C@@H]([C@H](O[C@@H]2O[C@H](CN)[C@@H](O)[C@H]2O)[C@H]2O[C@@H](n3ccc(=O)[nH]c3=O)[C@H](O)[C@@H]2O)C(=O)N(C)[C@@H]1C(=O)O [PALMITOYL CAPRAZOL]
MIC [18]: 12.5 µg/mL (≈ 15.4 µM) | MIC [19]: 6.25 µg/mL (≈ 7.68 µM) | MIC [20]: 1.56 µg/mL (≈ 1.92 µM) | MIC [21]: 3.13 µg/mL (≈ 3.85 µM) | MIC [22]: 6.25 µg/mL (≈ 7.68 µM)

NC[C@H]1O[C@@H](O[C@H]([C@H]2O[C@@H](n3ccc(=O)[nH]c3=O)[C@H](O)[C@@H]2O)n2cc(CCCCCCCCCCOc3ccc(C(=O)c4ccccc4)cc3)nn2)[C@H](O)[C@@H]1O
IC50 [24]: 25 µM | MIC [10]: 8 µg/mL (≈ 10.3 µM)

NC[C@H]1O[C@@H](OC[C@H]2O[C@@H](n3ccc(=O)[nH]c3=O)[C@H](O)[C@@H]2O)[C@H](O)[C@@H]1O
IC50 [25]: 50 µM
